Assay results: patent publication EP4112046A1, “PHARMACEUTICAL COMPOSITION AND USE THEREOF” (Alphala Co., Ltd., priority 2021, dated 2023)

Assay: Solubility in buffers or solutions, LC-MS/MS
Assay type: physicochemical
Settings: 3 mg/mL, 37°C, 24 hrs
Description: The test formulation was added into indicated buffers or solutions (ddH2O or 0.9% saline, pH 7.4) to the final concentration of 3 mg/mL, followed by sonicating for 30 mins. Next, the mixture was put into 37°C water bath for 24 hrs. The mixture was mixed well by vortex and 1 mL of mixture was transferred into the 1.5 mL eppendorf tube, followed by centrifuging at 20817 xg for 30 mins. 10 µL of the supernatant was collected, and the concentration of the collected supernatant was determined by LC-MS/MS.

Structure (SMILES): CCOC(=O)CCNC(=O)c1ccc(N[C@H](c2ccc(-c3nnc(-c4ccccc4)o3)cc2)C(C)C)cc1 [ALP001E]
- Solubility (mg/ml) (H2O (pH7.0)): < LOQ
- Solubility (mg/ml) (Saline (pH7.4)): < LOQ
